Reference: ChEMBL document CHEMBL3885861, “Open TG-GATES”

Organism: Rattus norvegicus
Assay: Open TG-GATES - Regimen: Daily Repeat
Format: toxicity, organism-based, Sprague-Dawley
Parameters: regimen Daily Repeat, gender Male, age 6 weeks
Conditions: in vivo, po, 0 mg/kg, route gavage, dose level Control; for APTT / Bas / Eos / Fbg / Hb / Ht / Lym / MCH / MCHC / MCV / Mono / Neu / PT / Plat / RBC / Ret / WBC: tissue Blood; for KIDNEY_L / KIDNEY_R / KIDNEY_TOTAL: tissue Kidney; for LIVER: tissue Liver; for A/G / ALP / ALT / AST / BUN / CRE / Ca / Cl / DBIL / GLC / IP / K / LDH / Na / PL / RALB / TBIL / TC / TG / TP / gamma-GTP: tissue Plasma

CCCc1cc(=O)[nH]c(=S)[nH]1 [PROPYLTHIOURACIL]
TERMINAL_BW (72 h, time 3 day): 207.9 g
APTT (72 h, time 3 day): 16.3 s
Bas (72 h, time 3 day): 0%
Eos (72 h, time 3 day): 0.8%
Fbg (72 h, time 3 day): 235 mg/dL
Hb (72 h, time 3 day): 13.5 g/dL
Ht (72 h, time 3 day): 40.7%
Lym (72 h, time 3 day): 73.4%
MCH (72 h, time 3 day): 21.7 pg
MCHC (72 h, time 3 day): 33.2%
MCV (72 h, time 3 day): 65.5 fL
Mono (72 h, time 3 day): 8.4%
Neu (72 h, time 3 day): 17.4%
PT (72 h, time 3 day): 12 s
Plat (72 h, time 3 day): 113.1 x10_4/uL
RBC (72 h, time 3 day): 622 x10_4/ul
Ret (72 h, time 3 day): 7.6%
WBC (72 h, time 3 day): 141.8 x10_2/uL
KIDNEY_L (72 h, time 3 day): 0.9 g
KIDNEY_R (72 h, time 3 day): 1 g
KIDNEY_TOTAL (72 h, time 3 day): 1.9 g
LIVER (72 h, time 3 day): 10.1 g
A/G (72 h, time 3 day): 1.9
ALP (72 h, time 3 day): 904.6 IU/L
ALT (72 h, time 3 day): 38.6 IU/L
AST (72 h, time 3 day): 65.4 IU/L
BUN (72 h, time 3 day): 20.6 mg/dL
CRE (72 h, time 3 day): 0.5 mg/dL
Ca (72 h, time 3 day): 11.5 mg/dL
Cl (72 h, time 3 day): 103.4 meq/L
DBIL (72 h, time 3 day): 0.022 mg/dL
GLC (72 h, time 3 day): 192.8 mg/dL
IP (72 h, time 3 day): 8.7 mg/dL
K (72 h, time 3 day): 5 meq/L
LDH (72 h, time 3 day): 90.6 IU/L
Na (72 h, time 3 day): 137.4 meq/L
PL (72 h, time 3 day): 160.8 mg/dL
RALB (72 h, time 3 day): 3.9 g/dL
TBIL (72 h, time 3 day): 0.3 mg/dL
TC (72 h, time 3 day): 85.6 mg/dL
TG (72 h, time 3 day): 98.8 mg/dL
TP (72 h, time 3 day): 6 g/dL
gamma-GTP (72 h, time 3 day): 2 IU/L
TERMINAL_BW ([…], time 7 day): 242.6 g
TERMINAL_BW ([…], time 14 day): 275 g
TERMINAL_BW ([…], time 28 day): 364.4 g
APTT ([…], time 7 day): 16 s
Bas ([…], time 7 day): 0%
Eos ([…], time 7 day): 0.8%
Fbg ([…], time 7 day): 232.4 mg/dL
Hb ([…], time 7 day): 13.8 g/dL
Ht ([…], time 7 day): 41%
Lym ([…], time 7 day): 77.8%
MCH ([…], time 7 day): 21.4 pg
MCHC ([…], time 7 day): 33.6%
MCV ([…], time 7 day): 63.6 fL
Mono ([…], time 7 day): 5.6%
Neu ([…], time 7 day): 15.8%
PT ([…], time 7 day): 12 s
Plat ([…], time 7 day): 105.3 x10_4/uL
RBC ([…], time 7 day): 643.8 x10_4/ul
Ret ([…], time 7 day): 6.7%
WBC ([…], time 7 day): 127.9 x10_2/uL
APTT ([…], time 14 day): 16.2 s
Bas ([…], time 14 day): 0%
Eos ([…], time 14 day): 0.2%
Fbg ([…], time 14 day): 220.4 mg/dL
Hb ([…], time 14 day): 14.7 g/dL
Ht ([…], time 14 day): 43.9%
Lym ([…], time 14 day): 80.8%
MCH ([…], time 14 day): 21 pg
MCHC ([…], time 14 day): 33.4%
MCV ([…], time 14 day): 63 fL
Mono ([…], time 14 day): 4%
Neu ([…], time 14 day): 15%
PT ([…], time 14 day): 12.1 s
Plat ([…], time 14 day): 105.2 x10_4/uL
RBC ([…], time 14 day): 697.6 x10_4/ul
Ret ([…], time 14 day): 5%
WBC ([…], time 14 day): 125.5 x10_2/uL
APTT ([…], time 28 day): 16.6 s
Bas ([…], time 28 day): 0%
Eos ([…], time 28 day): 0.6%
Fbg ([…], time 28 day): 223.8 mg/dL
Hb ([…], time 28 day): 15.3 g/dL
Ht ([…], time 28 day): 45.9%
Lym ([…], time 28 day): 86.8%
MCH ([…], time 28 day): 19.5 pg
MCHC ([…], time 28 day): 33.4%
MCV ([…], time 28 day): 58.4 fL
Mono ([…], time 28 day): 3.8%
Neu ([…], time 28 day): 8.8%
PT ([…], time 28 day): 12.1 s
Plat ([…], time 28 day): 105.4 x10_4/uL
RBC ([…], time 28 day): 786.4 x10_4/ul
Ret ([…], time 28 day): 2.8%
WBC ([…], time 28 day): 95.2 x10_2/uL
KIDNEY_L ([…], time 7 day): 1.1 g
KIDNEY_R ([…], time 7 day): 1.1 g
KIDNEY_TOTAL ([…], time 7 day): 2.1 g
KIDNEY_L ([…], time 14 day): 1.1 g
KIDNEY_R ([…], time 14 day): 1.1 g
KIDNEY_TOTAL ([…], time 14 day): 2.2 g
KIDNEY_L ([…], time 28 day): 1.3 g
KIDNEY_R ([…], time 28 day): 1.3 g
KIDNEY_TOTAL ([…], time 28 day): 2.6 g
LIVER ([…], time 7 day): 11.7 g
LIVER ([…], time 14 day): 12.2 g
LIVER ([…], time 28 day): 15.2 g
A/G ([…], time 7 day): 1.8
ALP ([…], time 7 day): 1082.6 IU/L
ALT ([…], time 7 day): 34.2 IU/L
AST ([…], time 7 day): 67.4 IU/L
BUN ([…], time 7 day): 20.8 mg/dL
CRE ([…], time 7 day): 0.5 mg/dL
Ca ([…], time 7 day): 11.5 mg/dL
Cl ([…], time 7 day): 106.2 meq/L
DBIL ([…], time 7 day): 0.016 mg/dL
GLC ([…], time 7 day): 180 mg/dL
IP ([…], time 7 day): 8 mg/dL
K ([…], time 7 day): 5.2 meq/L
LDH ([…], time 7 day): 95.6 IU/L
Na ([…], time 7 day): 139 meq/L
PL ([…], time 7 day): 158.4 mg/dL
RALB ([…], time 7 day): 3.9 g/dL
TBIL ([…], time 7 day): 0.4 mg/dL
TC ([…], time 7 day): 77 mg/dL
TG ([…], time 7 day): 127 mg/dL
TP ([…], time 7 day): 6.1 g/dL
gamma-GTP ([…], time 7 day): 1.8 IU/L
A/G ([…], time 14 day): 1.8
ALP ([…], time 14 day): 719.8 IU/L
ALT ([…], time 14 day): 30 IU/L
AST ([…], time 14 day): 59.4 IU/L
BUN ([…], time 14 day): 18.8 mg/dL
CRE ([…], time 14 day): 0.7 mg/dL
Ca ([…], time 14 day): 11 mg/dL
Cl ([…], time 14 day): 107.4 meq/L
DBIL ([…], time 14 day): 0.006 mg/dL
GLC ([…], time 14 day): 183.6 mg/dL
IP ([…], time 14 day): 8.1 mg/dL
K ([…], time 14 day): 4.4 meq/L
LDH ([…], time 14 day): 87.4 IU/L
Na ([…], time 14 day): 140.8 meq/L
PL ([…], time 14 day): 150.4 mg/dL
RALB ([…], time 14 day): 3.9 g/dL
TBIL ([…], time 14 day): 0.3 mg/dL
TC ([…], time 14 day): 69.4 mg/dL
TG ([…], time 14 day): 111.2 mg/dL
TP ([…], time 14 day): 6.1 g/dL
gamma-GTP ([…], time 14 day): 0.8 IU/L
A/G ([…], time 28 day): 1.8
ALP ([…], time 28 day): 612.6 IU/L
ALT ([…], time 28 day): 27 IU/L
AST ([…], time 28 day): 59.8 IU/L
BUN ([…], time 28 day): 20.6 mg/dL
CRE ([…], time 28 day): 0.7 mg/dL
Ca ([…], time 28 day): 10.8 mg/dL
Cl ([…], time 28 day): 106.8 meq/L
DBIL ([…], time 28 day): 0.012 mg/dL
GLC ([…], time 28 day): 169.4 mg/dL
IP ([…], time 28 day): 6.7 mg/dL
K ([…], time 28 day): 4.5 meq/L
LDH ([…], time 28 day): 84 IU/L
Na ([…], time 28 day): 139.8 meq/L
PL ([…], time 28 day): 161.6 mg/dL
RALB ([…], time 28 day): 4 g/dL
TBIL ([…], time 28 day): 0.2 mg/dL
TC ([…], time 28 day): 76.6 mg/dL
TG ([…], time 28 day): 153.8 mg/dL
TP ([…], time 28 day): 6.3 g/dL
gamma-GTP ([…], time 28 day): 1.6 IU/L
